# From PubChem BioAssay AID298 (DTP/NCI, 2004)
# Where “and” joins values, the source holds several entries; their conditions need not be identical. Equal values may be shown once. Results filed as inconclusive are left out.
# System: MX-1 breast xenograft, intrarenal, nude mice, tumor weight
# Assay: NCI In Vivo Anticancer Drug Screen. Data for tumor model Human Mammary Carcinoma MX-1 Xenograft (intrarenal inoculation) in NU/NU BALB/C (nude) mice
# Conditions: endpoint: mean tumor weight change, higher = larger tumour
# Experimental: The antitumor activity of compounds was measured in mice bearing transplantable tumors. Survival or tumor size were measured and the results are expressed as the measurement made in the treated group (T) divided by the measurement made in the vehicle treated control group (C). The tumor model used in this assay is Human Mammary Carcinoma MX-1 Xenograft (intrarenal inoculation) in NU/NU BALB/C (nude) mice
# [1] = dose: 600.0 mg/kg/injection, schedule: Q04DX003 (sc), vehicle: Klucel (hydroxypropylcellulose) (HPC)
# [2] = dose: 1200.0 mg/kg/injection, schedule: Q04DX003 (sc), vehicle: Klucel (hydroxypropylcellulose) (HPC)
# [3] = dose: 2400.0 mg/kg/injection, schedule: Q04DX003 (sc), vehicle: Klucel (hydroxypropylcellulose) (HPC)
smiles,measurement,setting,value
[N-]=[N+]=CC(=O)CCC(NC(=O)OCc1ccccc1)C(=O)OCc1ccccc1 (centres undefined),T/C,"dose: 300.0 mg/kg/injection, schedule: Q04DX003 (ip), vehicle: Klucel (hydroxypropylcellulose) (HPC)",6 % of control and 23 % of control and 27 % of control
same,T/C,"dose: 450.0 mg/kg/injection, schedule: Q04DX003 (ip), vehicle: Klucel (hydroxypropylcellulose) (HPC)",20 % of control
same,T/C,"dose: 600.0 mg/kg/injection, schedule: Q04DX003 (ip), vehicle: Klucel (hydroxypropylcellulose) (HPC)",6 % of control and 16 % of control
same,T/C,"dose: 900.0 mg/kg/injection, schedule: Q04DX003 (ip), vehicle: Klucel (hydroxypropylcellulose) (HPC)",1 % of control
same,T/C,"dose: 1200.0 mg/kg/injection, schedule: Q04DX003 (ip), vehicle: Klucel (hydroxypropylcellulose) (HPC)",22 % of control
CCCCCc1cc(/C=C2/N=C(c3ccc[nH]3)C=C2OC)[nH]c1C,T/C,"dose: 16.0 mg/kg/injection, schedule: Q04DX003 (sc), vehicle: saline with Tween-80",93 % of control
same,T/C,"dose: 32.0 mg/kg/injection, schedule: Q04DX003 (sc), vehicle: saline with Tween-80",93 % of control
same,T/C,"dose: 64.0 mg/kg/injection, schedule: Q04DX003 (sc), vehicle: saline with Tween-80",75 % of control
same,T/C,"dose: 128.0 mg/kg/injection, schedule: Q04DX003 (sc), vehicle: saline with Tween-80",46 % of control
O=C1C=C(N2CC2)C(=O)C(N2CC2)=C1N1CC1,T/C,"dose: 25.0 micrograms/kg/injection, schedule: Q04DX003 (ip), vehicle: saline",4 % of control
same,T/C,"dose: 400.0 micrograms/kg/injection, schedule: Q04DX003 (ip), vehicle: saline",-100 % of control
CCc1nc(N)nc(N)c1-c1ccc(Cl)c(N=[N+]=[N-])c1,T/C,"dose: 67.0 mg/kg/injection, schedule: Q04DX003 (ip), vehicle: water",85 % of control
CC1(C)N=C(N)N=C(N)N1c1ccc(F)c(C(F)(F)F)c1,T/C,"dose: 6.25 mg/kg/injection, schedule: Q01DX010 (sc), vehicle: saline",97 % of control
same,T/C,"dose: 12.5 mg/kg/injection, schedule: Q01DX010 (sc), vehicle: saline",85 % of control
same,T/C,"dose: 25.0 mg/kg/injection, schedule: Q01DX010 (sc), vehicle: saline",64 % of control
Cc1cc(N/N=C/c2ccccn2)nc2ccccc12,T/C,"dose: 300.0 mg/kg/injection, schedule: Q04DX003 (sc), vehicle: Klucel (hydroxypropylcellulose) (HPC)",74 % of control
same,T/C,[1],73 % of control
same,T/C,[2],43 % of control
same,T/C,[3],68 % of control
CSc1ncnc2c1ncn2C1OC(CO)C(O)C1O (centres undefined),T/C,"dose: 75.0 mg/kg/injection, schedule: Q04DX003 (sc), vehicle: saline + alcohol",1 % of control
same,T/C,"dose: 150.0 mg/kg/injection, schedule: Q04DX003 (sc), vehicle: saline + alcohol",-97 % of control
S=C(NCNC(=S)c1ccncc1)c1ccncc1,T/C,"dose: 300.0 mg/kg/injection, schedule: Q04DX003 (ip), vehicle: saline with Tween-80",97 % of control
same,T/C,"dose: 600.0 mg/kg/injection, schedule: Q04DX003 (ip), vehicle: saline with Tween-80",40 % of control
CC(=O)O[C@H]1C(=O)[C@@]2(C)C(C(OC(=O)c3ccccc3)[C@]3(O)C[C@H](OC(=O)C(OC(=O)CCCC(=O)NCCCN(C)C)C(NC(=O)c4ccccc4)c4ccccc4)C(C)=C1C3(C)C)C1(OC(C)=O)COC1C[C@@H]2O (some centres undefined),T/C,"dose: 2.5 mg/kg/injection, schedule: Q01DX009 (ip), vehicle: water",22 % of control
same,T/C,"dose: 5.0 mg/kg/injection, schedule: Q01DX009 (ip), vehicle: water",1 % of control
same,T/C,"dose: 10.0 mg/kg/injection, schedule: Q01DX009 (ip), vehicle: water",1 % of control
same,T/C,"dose: 20.0 mg/kg/injection, schedule: Q01DX009 (ip), vehicle: water",-100 % of control
same,T/C,"dose: 40.0 mg/kg/injection, schedule: Q01DX009 (ip), vehicle: water",-100 % of control
O=C(O)CCCc1ccc(N(CCCl)CCCl)cc1,T/C,"dose: 12.0 mg/kg/injection, schedule: Q04DX003 (ip), vehicle: Klucel (hydroxypropylcellulose) (HPC)",1 % of control and 4 % of control
same,T/C,"dose: 18.0 mg/kg/injection, schedule: Q04DX003 (ip), vehicle: Klucel (hydroxypropylcellulose) (HPC)",4 % of control
same,T/C,"dose: 27.0 mg/kg/injection, schedule: Q04DX003 (ip), vehicle: Klucel (hydroxypropylcellulose) (HPC)",-55 % of control
O=S(=O)(CCl)OCCCl,T/C,"dose: 25.0 mg/kg/injection, schedule: Q04DX003 (sc), vehicle: saline with Tween-80",90 % of control
same,T/C,"dose: 50.0 mg/kg/injection, schedule: Q04DX003 (sc), vehicle: saline with Tween-80",113 % of control
same,T/C,"dose: 100.0 mg/kg/injection, schedule: Q04DX003 (sc), vehicle: saline with Tween-80",95 % of control
CC(=O)OCC1OC(n2cc(CBr)nn2)C(OC(C)=O)C(OC(C)=O)C1OC(C)=O (centres undefined),T/C,"dose: 25.0 mg/kg/injection, schedule: Q01DX010 (sc), vehicle: saline with Tween-80",92 % of control
same,T/C,"dose: 50.0 mg/kg/injection, schedule: Q01DX010 (sc), vehicle: saline with Tween-80",94 % of control
same,T/C,"dose: 100.0 mg/kg/injection, schedule: Q01DX010 (sc), vehicle: saline with Tween-80",95 % of control
same,T/C,"dose: 200.0 mg/kg/injection, schedule: Q01DX010 (sc), vehicle: saline with Tween-80",87 % of control
C[n+]1c(-c2ccc(NC(=O)c3ccc(C(=O)Nc4ccc(-c5cn6ccccc6[n+]5C)cc4)cc3)cc2)cn2ccccc21,T/C,"dose: 12.5 mg/kg/injection, schedule: Q04DX003 (ip), vehicle: saline with Tween-80",41 % of control
C=C(OC)C(Nc1cc(OC)c(OC)cc1C(=O)OC1CC(O[C@@H]2C(=O)C(NC(=O)OC)=C3/C(=C\CSSSC)[C@]2(O)C#C/C=C\C#C[C@@H]3OC2OC(C)C(NOC3CC(O)C(SC)C(C)O3)C(O)C2OC2CC(OC)C(NCCC)CO2)OC(C)C1O)OC (some centres undefined),T/C,"dose: 0.31 micrograms/kg/injection, schedule: Q04DX003 (ip), vehicle: alcohol",71 % of control
same,T/C,"dose: 0.32 micrograms/kg/injection, schedule: Q04DX003 (ip), vehicle: saline + alcohol",39 % of control
same,T/C,"dose: 0.62 micrograms/kg/injection, schedule: Q04DX003 (ip), vehicle: alcohol",68 % of control
same,T/C,"dose: 0.64 micrograms/kg/injection, schedule: Q04DX003 (ip), vehicle: saline + alcohol",17 % of control
same,T/C,"dose: 1.25 micrograms/kg/injection, schedule: Q04DX003 (ip), vehicle: alcohol",22 % of control
same,T/C,"dose: 1.28 micrograms/kg/injection, schedule: Q04DX003 (ip), vehicle: saline + alcohol",27 % of control
same,T/C,"dose: 2.5 micrograms/kg/injection, schedule: Q04DX003 (ip), vehicle: alcohol",26 % of control
same,T/C,"dose: 2.56 micrograms/kg/injection, schedule: Q04DX003 (ip), vehicle: saline + alcohol",13 % of control
same,T/C,"dose: 5.0 micrograms/kg/injection, schedule: Q04DX003 (ip), vehicle: alcohol",12 % of control
NC(=O)c1c[se]c(C2OC(CO)C(O)C2O)n1 (centres undefined),T/C,"dose: 75.0 mg/kg/injection, schedule: Q04DX003 (ip), vehicle: water",88 % of control
same,T/C,"dose: 150.0 mg/kg/injection, schedule: Q04DX003 (ip), vehicle: water",61 % of control
same,T/C,"dose: 300.0 mg/kg/injection, schedule: Q04DX003 (ip), vehicle: water",50 % of control
same,T/C,"dose: 600.0 mg/kg/injection, schedule: Q04DX003 (ip), vehicle: water",43 % of control
O=NN(CCCl)C(=O)NCCCl,T/C,"dose: 12.0 mg/kg/injection, schedule: Q04DX003 (ip), vehicle: saline + alcohol",60 % of control and 74 % of control
same,T/C,"dose: 15.0 mg/kg/injection, schedule: Q04DX003 (sc), vehicle: Klucel (hydroxypropylcellulose) (HPC)",30 % of control
same,T/C,"dose: 18.0 mg/kg/injection, schedule: Q04DX003 (ip), vehicle: saline + alcohol",27 % of control and 49 % of control
same,T/C,"dose: 30.0 mg/kg/injection, schedule: Q04DX003 (sc), vehicle: Klucel (hydroxypropylcellulose) (HPC)",1 % of control
CCOc1ccc(C(C)c2cc3c(cc2OC)OCO3)cc1 (centres undefined),T/C,"dose: 150.0 mg/kg/injection, schedule: Q04DX003 (ip), vehicle: distilled water + Tween-80",93 % of control
same,T/C,"dose: 300.0 mg/kg/injection, schedule: Q04DX003 (ip), vehicle: distilled water + Tween-80",56 % of control
same,T/C,"dose: 600.0 mg/kg/injection, schedule: Q04DX003 (ip), vehicle: distilled water + Tween-80",27 % of control
CC1=C/C(O)CC(=O)Cc2nc(co2)C(=O)N2CCC=C2C(=O)OC(C(C)C)C(C)/C=C\C(=O)NC/C=C\1 (centres undefined),T/C,[1],104 % of control
same,T/C,[2],92 % of control
same,T/C,[3],88 % of control
Oc1ccc(CCl)c2cccnc12,T/C,"dose: 75.0 mg/kg/injection, schedule: Q04DX003 (sc), vehicle: saline",120 % of control
same,T/C,"dose: 150.0 mg/kg/injection, schedule: Q04DX003 (sc), vehicle: saline",99 % of control
same,T/C,"dose: 300.0 mg/kg/injection, schedule: Q04DX003 (sc), vehicle: saline",87 % of control
CCOC(=O)Nc1cc2c(c(N)n1)N=C(c1ccc3ccccc3c1)CN2,T/C,"dose: 3.75 mg/kg/injection, schedule: Q04DX003 (ip), vehicle: saline with Tween-80",73 % of control
same,T/C,"dose: 7.5 mg/kg/injection, schedule: Q04DX003 (ip), vehicle: saline with Tween-80",81 % of control
same,T/C,"dose: 15.0 mg/kg/injection, schedule: Q04DX003 (ip), vehicle: saline with Tween-80",44 % of control
same,T/C,"dose: 30.0 mg/kg/injection, schedule: Q04DX003 (ip), vehicle: saline with Tween-80",34 % of control
